The subject of one test is Desulfovibrio gigas. As to the kind of experiment: Sulfide production by resting cells of D. gigas. The test is classed as cell-based. The settings on record: for activity at 0.1 ppm / activity at 0.5 ppm / activity at 2 ppm / activity at 5 ppm: Desulfovibrio, 3 hours at 31° C.; for inhibition of sulfide production (in words): resting cells. The protocol:
Experiments in this example were carried out using resting cells of Desulfovibrio gigas rather than growing cells as was the case for the autoanalyzer system employing the Desulfovibrio desulfuricans G100A strain. […] Thus the experiment examined a different organism, different test system, and a different physiological state for the phenomenon of anthraquinone inhibition of sulfide production by Desulfovibrio sp. Active compounds, as determined by the autoanalyzer, were evaluated in comparison with four additional compounds not evaluated in the autoanalyzer.
500 ml cultures of Desulfovibrio gigas were grown on standard BTZ-3 medium as previously described in Example 1 with 30 mM sodium lactate, 30 mM sodium sulfate and 30 mM sodium fumarate. The culture was harvested after 24 h of growth at 31° C. by centrifugation at 8000 rpm in a GSA Sorvall rotor for 20 minutes. The cell pellet was resuspended in 30 ml of incubation assay mixture of the following composition: 50 mM HEPES buffer pH 7 buffer, 2.5 mM sodium lactate, 2.5 mM sodium sulfate. This suspension was centrifuged again at 10,000 rpm in a Sorvall SS-34 rotor for 5 minutes. The resulting cell pellet was resuspended in 5 ml of incubation assay buffer. Cell densities were generally near 10e10 cells/mi.
The samples were assayed for production in the presence of anthraquinones. 200 ul of the cell suspension was added to 1.2 ml of incubation assay mixture in a 5 ml capacity test tube. The tube was gassed with hydrogen gas for 20 minutes then the anthraquinones were added as ethanolic solutions, the tubes were then gassed with hydrogen again for 5 minutes. The reaction mixtures were then incubated for 3 hours at 31° C. The reactions were stopped by the addition of 200 ul of 1N sodium hydroxide. After 20 minutes the alkaline mixtures were centrifuged in a table top microfuge for 4 minutes at 14,000 rpm to remove cells and cell debris. The supernatant was then assayed for sulfide using the ferric chloride-DPD reagent system as described by Siegel et al., Anal. Blochem., 11:126-132, 1965, herein incorporated by reference.

Test [1] has as its system D. desulfuricans G100A. In words: Growth of D. desulfuricans G100A after addition of inhibitor at 12 h. The format is cell-based. The procedure:
Four 10 ml culture tubes of BTZ-3 medium as defined in Example 1 supplemented with sodium lactate (40 mM) and sodium sulfate (30 mM) and 0.5 ml of reducing agent were inoculated with 100 ul of a fully grown suspension of D. desulfuricans G100A. The culture was allowed to grow and the optical density at 660 nm was monitored until the cells entered into exponential growth (approx. 12-15 h, O.D. 660=0.1-0.2). At this time 100 ul of a 300 ppm solution of 1,8 dihydroxyanthraquinone, 1-chloranthraquinone or 3-chloro-2-anthraquinone carboxylic acid, respectively, was added to one of the tubes. The ethanol:water (80:20) solvent (100 μl ) was added to the fourth tube to serve as an uninhibited control.
#3 ppm inhibitor added at 12 hours

Test [2] has as its system D. desulfuricans G100A. In words: Effect of dithionite-reduced anthraquinones on growth of D. desulfuricans G100A. The test is classed as cell-based. The protocol: Three anthraquinones, 1,8-dihydroxy-, 1-chloro-, and 3-chloro-2-carboxy- were prepared as 1 ml of 1000 ppm solutions in acetone for the first two compounds or water for the third. These solutions were then treated with 1 mg of the strong reducing agent, sodium dithionite. 50 ul of each solution (for a final culture concentration of 5 ppm) was used immediately to treat growing cultures of D. desulfuricans G100A in BTZ-3 medium as defined in Example 1. The compounds were added to the 10 ml cultures at 15 h of growth.

Test [3] concerns Desulfovibrio desulfuricans G100A. As to the kind of experiment: microbe, parasite or virus in culture. The format is cell-based. As to conditions: Desulfovibrio desulfuricans, G100A, read-out: % Inhib. (inhibition of sulfide production).
Test [4] concerns D. desulfuricans #ATCC27774. In words: Respiration rate (hydrogen gas uptake) with sulfate as electron acceptor. As to conditions: Desulfovibrio desulfuricans, ATCC27774, 4 h, pH 7, read-out: Gas Uptake (as percent of control).
In test [5] the test system is sulfate-reducing bacteria. The settings on record: background art; cited from earlier work.
The mark [6] stands for this setting: 0 h of growth, before addition of 3 ppm inhibitor at 12 h.
Where [7] appears, read: 10 h of growth, before addition of 3 ppm inhibitor at 12 h.
Setting [8] is: 12 h of growth, 3 ppm inhibitor added at 12 h.
Setting [9] is: 14 h of growth, 3 ppm inhibitor added at 12 h.
[10] abbreviates: 18 h of growth, 3 ppm inhibitor added at 12 h.
[11] abbreviates: 20 h of growth, 3 ppm inhibitor added at 12 h.
Setting [12] is: 24 h of growth, 3 ppm inhibitor added at 12 h.
The mark [13] stands for this setting: 29 h of growth, 3 ppm inhibitor added at 12 h.
The mark [14] stands for this setting: 34 h of growth, 3 ppm inhibitor added at 12 h.
Where [15] appears, read: 62 h of growth, 3 ppm inhibitor added at 12 h.
[16] abbreviates: 92 h of growth, 3 ppm inhibitor added at 12 h.
[17] abbreviates: 0 h, before addition of 5 ppm dithionite-reduced compound at 15 h, control 0.02.
The mark [18] stands for this setting: 2 h, before addition of 5 ppm dithionite-reduced compound at 15 h, control 0.02.
Where [19] appears, read: 12 h, before addition of 5 ppm dithionite-reduced compound at 15 h, control 0.08.
[20] abbreviates: 15 h, time of addition of 5 ppm dithionite-reduced compound, control 0.18.
The mark [21] stands for this setting: 17 h, 5 ppm dithionite-reduced compound added at 15 h, control 0.26.
Setting [22] is: 20 h, 5 ppm dithionite-reduced compound added at 15 h, control 0.37.
[23] abbreviates: 25 h, 5 ppm dithionite-reduced compound added at 15 h, control 0.50.
Where [24] appears, read: 30 h, 5 ppm dithionite-reduced compound added at 15 h, control 0.98.
The mark [25] stands for this setting: 45 h, 5 ppm dithionite-reduced compound added at 15 h, control 1.50.

Counter-ions that a name gives are not always drawn.

As to `O=C1c2ccccc2C(=O)c2c(Cl)cccc21` [1-Chloroanthraquinone], the activity at 0.1 ppm in the test on Desulfovibrio gigas was found to be 81%. For the same molecule, in the test with Desulfovibrio gigas, the activity at 0.5 ppm turned out to be 26%. In the test on Desulfovibrio gigas, the activity at 2 ppm is 1.6%. For the same molecule, the activity at 5 ppm in the test with Desulfovibrio gigas came to 1.3%. Also, the “inhibition of sulfide production (in words)” value (“inhibition … (in words)” below) in the test on Desulfovibrio gigas is on record as “inhibitory properties”. Further, the “optical density reading at 660 nm” value with D. desulfuricans G100A [1] (setting [6]) was “.01”; with D. desulfuricans G100A [1] (setting [7]), “.11”; with D. desulfuricans G100A [1] (setting [8]) it was “.12”; in the test on D. desulfuricans G100A [1] (setting [9]) it was “.12”; with D. desulfuricans G100A [1] (setting [10]), “.27”; in the test with D. desulfuricans G100A [1] (setting [11]) it was “.32”. Besides, the “optical density reading at 660 nm” value with D. desulfuricans G100A [1] (setting [12]) is recorded as “.32”; in the test on D. desulfuricans G100A [1] (setting [13]), “.30”; with D. desulfuricans G100A [1] (setting [14]), “.32”; in the test with D. desulfuricans G100A [1] (setting [15]), “.26”; in the test with D. desulfuricans G100A [1] (setting [16]), “.23”. Besides, the “Optical Density @ 660 nm” value came to 0.02 in the test with D. desulfuricans G100A [2] (setting [17]); 0.02 in the test on D. desulfuricans G100A [2] (setting [18]); 0.08 with D. desulfuricans G100A [2] (setting [19]); 0.15 in the test with D. desulfuricans G100A [2] (setting [20]); 0.20 in the test on D. desulfuricans G100A [2] (setting [21]); 0.21 with D. desulfuricans G100A [2] (setting [22]). Further, the “Optical Density @ 660 nm” value was determined as 0.22 in the test with D. desulfuricans G100A [2] (setting [23]), 0.22 in the test on D. desulfuricans G100A [2] (setting [24]) and 0.24 in the test on D. desulfuricans G100A [2] (setting [25]). In addition, in test [3], the inhibition at 30 ppm stood at 20.8%. For the same molecule, the activity at 0.6 ppm in test [4] was determined as 74%. For the same molecule, the activity at 1.5 ppm in test [4] came to 50%. For the same molecule, the activity at 3 ppm in test [4] was 38%.

Take `O=C(O)c1cc2c(cc1Cl)C(=O)c1ccccc1C2=O` [2-Chloroanthraquinone-3-carboxylic acid, 3-Chloro-9,10-dihydro-9,10-dioxo-2-anthracenecarboxylic acid]: the “optical density reading at 660 nm” value is reported as “.01” in the test with D. desulfuricans G100A [1] (setting [6]); “.10” in the test with D. desulfuricans G100A [1] (setting [7]); “.16” in the test with D. desulfuricans G100A [1] (setting [8]); “.21” in the test on D. desulfuricans G100A [1] (setting [9]); “.36” with D. desulfuricans G100A [1] (setting [10]); “.38” in the test with D. desulfuricans G100A [1] (setting [11]). Moreover, the “optical density reading at 660 nm” value is on record as “.36” in the test on D. desulfuricans G100A [1] (setting [12]); “.37” in the test on D. desulfuricans G100A [1] (setting [13]); “.37” with D. desulfuricans G100A [1] (setting [14]); “.34” in the test with D. desulfuricans G100A [1] (setting [15]); “.25” in the test with D. desulfuricans G100A [1] (setting [16]). For the same molecule, the “Optical Density @ 660 nm” value in the test on D. desulfuricans G100A [2] (setting [17]) turned out to be 0.02; with D. desulfuricans G100A [2] (setting [18]), 0.02; with D. desulfuricans G100A [2] (setting [19]), 0.07; with D. desulfuricans G100A [2] (setting [20]), 0.1; in the test with D. desulfuricans G100A [2] (setting [21]), 0.15; in the test with D. desulfuricans G100A [2] (setting [22]) it was 0.17. Moreover, the “Optical Density @ 660 nm” value worked out at 0.17 in the test on D. desulfuricans G100A [2] (setting [23]), 0.16 in the test on D. desulfuricans G100A [2] (setting [24]) and 0.22 with D. desulfuricans G100A [2] (setting [25]). Further, the inhibition at 10 ppm in test [3] is 100%. Moreover, the activity at 0.6 ppm in test [4] was 79%. For the same molecule, the activity at 1.5 ppm in test [4] stood at 55%. For the same molecule, the activity at 3 ppm in test [4] was determined as 41%.

Turning to `N#Cc1cccc2c1C(=O)c1ccccc1C2=O` [1-cyanoanthraquinone, 1-Cyanoanthraquinone], in the test on Desulfovibrio gigas, the activity at 0.1 ppm came to 118%, the activity at 0.5 ppm was 20%, the activity at 2 ppm is 6.7% and the activity at 5 ppm worked out at 6.8%. In addition, in the test on Desulfovibrio gigas, the “inhibition … (in words)” value was “inhibitory effect”.

As to `O=C1c2ccccc2C(=O)c2c(F)cccc21` [1-fluoroanthraquinone, 1-Fluoroanthraquinone], in the test with Desulfovibrio gigas, the activity at 0.1 ppm was 105%, the activity at 0.5 ppm came to 23%, the activity at 2 ppm amounted to 0.9% and the activity at 5 ppm was 0.9%. The “inhibition … (in words)” value in the test on Desulfovibrio gigas is “inhibitory effect”.

On to `O=C1c2ccccc2C(=O)c2cc(Br)ccc21` [2-bromoanthraquinone, 2-Bromoanthraquinone], for which, in the test with Desulfovibrio gigas, the activity at 0.1 ppm came out at 99%, the activity at 0.5 ppm was found to be 33%, the activity at 2 ppm is 0.6% and the activity at 5 ppm was 0.6%. Besides, the “inhibition … (in words)” value in the test on Desulfovibrio gigas is listed as “inhibitory effect”.

With molybdate, the “effective / use concentration against sulfate-reducers” value in test [5] is given as 1000-4000 ppm.

`N#CC(Br)(Br)C(N)=O` [2,2-Dibromo-3-nitrilopropionamide]: in test [5], the “effective / use concentration against sulfate-reducers” value was 3-12 ppm.

Consider `O=C1c2ccccc2C(=O)c2cc(C(F)(F)F)ccc21` [2-trifluoromethylanthraquinone, 2-Trifluoromethylanthraquinone], for which, in the test with Desulfovibrio gigas, the activity at 0.1 ppm worked out at 99%, the activity at 0.5 ppm was 17%, the activity at 2 ppm amounted to 1.7% and the activity at 5 ppm was found to be 1.5%. Moreover, in the test on Desulfovibrio gigas, the “inhibition … (in words)” value was “inhibitory effect”.

`O=C1c2ccc(O)cc2C(=O)c2c1ccc(O)c2O` [Anthrapurpurin, 1,2,7-Trihydroxyanthraquinone]: in test [3], the inhibition at 10 ppm is 37.5%.

Regarding `CCCCCNc1ccc(NCCCCC)c2c1C(=O)c1ccccc1C2=O` [Oil blue N, 1,4-Bis(pentylamino)-9,10-anthracenedione], in test [3], the inhibition at 30 ppm was 3.6%.

`Cc1ccc(Nc2ccc(Nc3ccc(C)cc3)c3c2C(=O)c2cccc(O)c2C3=O)cc1` [Sudan green, 5-hydroxy-1,4-bis[(4-methylphenyl)amino]-9,10-anthracenedione]: in test [3], the inhibition at 30 ppm worked out at 0%.

In the case of `Cc1ccc(Nc2ccc(Nc3ccc(C)cc3S(=O)(=O)O)c3c2C(=O)c2c(O)ccc(O)c2C3=O)c(S(=O)(=O)O)c1` [Acid green 41, 2,2'-[(9,10-Dihydro-5,8-dihydroxy-9,10-dioxo-1,4-anthracendiyl)diimino]bis[5-methylbenzenesulfonic acid], di Na salt], the inhibition at 10 ppm in test [3] is 17.8%.

Consider `Cc1cc(O)c2c(c1)C(=O)c1c(O)ccc(O)c1C2=O` [Helminthosporin, 1,5,8-Trihydroxy-3-methyl-9,10-anthracenedione], for which the inhibition at 10 ppm in test [3] came out at 31.3%.

`CCCCc1ccc(Nc2ccc(Nc3ccc(CCCC)cc3S(=O)(=O)O)c3c2C(=O)c2ccccc2C3=O)c(S(=O)(=O)O)c1` [Acid green 27, 2,2'-[(9,10-Dihydro-9,10-dioxo-1,4-anthracenediyl)-diimino]bis[5-butylbenzenesulfonic acid]]: in test [3], the inhibition at 10 ppm was determined as 16.5%.

Take `O=C1c2ccc(S(=O)(=O)O)cc2C(=O)c2ccc(S(=O)(=O)O)cc21` [Anthraquinone-2,6-disulfonic acid di Na salt]: in test [3], the inhibition at 10 ppm came out at 9.8%.
